Assay: Biocide migration test: biocide in strippable PV Acetate emulsion coating, film coated with cooking oil for 24 hrs, oil tested for presence of biocide
Format: physicochemical
Settings: for Leaching (migration) of the biocide from the coating into the oil: strippable PV Acetate emulsion coating film coated with cooking oil, 24 hrs, oil tested for presence of biocide; for Suitability as oil soluble biocide leaching from the dry film into oils deposited on the film: dry film in situ, oily deposits
Experimental: Initially biocides were selected for trial on the basis that they would be innocuous in a food preparation area. Many of those initially tested are food grade or similar low toxicity biocides. Biocides were tested by incorporating the biocide in the strippable PV Acetate emulsion coating formulation, coating a film of the coating with cooking oil and leaving it in place for 24 hrs and then testing the oil for presence of Biocide. The leaching of the biocide into the oil is considered a proxy for the ability of the film to prevent microbial degradation of the oily material coated thereon.

Structure (SMILES): CCCCOC(=O)c1ccccc1 [butyl benzoate]
- Leaching (migration) of the biocide from the coating into the oil: passed the above test

Structure (SMILES): CCCCOC(=O)c1ccc(O)cc1 [butyl parabens, Butyl Parabens]
- Suitability as oil soluble biocide leaching from the dry film into oils deposited on the film: satisfactory

Structure (SMILES): CCOC(=O)c1ccccc1 [ethylbenzoate]
- Leaching (migration) of the biocide from the coating into the oil: passed the above test

Structure (SMILES): COC(=O)c1ccccc1 [methyl benzoate]
- Leaching (migration) of the biocide from the coating into the oil: passed the above test

Structure (SMILES): OCCOc1ccccc1 [phenoxyethanol, Phenoxyethanol]
- Suitability as oil soluble biocide leaching from the dry film into oils deposited on the film: ineffective

Structure (SMILES): CCCOC(=O)c1ccccc1 [propyl benzoate]
- Leaching (migration) of the biocide from the coating into the oil: passed the above test
